Reference: the NIST ThermoML archive (doi:10.1021/acs.jced.7b00222)
Several values for one entry are separate records, joined by “and”; a condition that tells them apart may be missing. Identical values can stand only once.

Conditions: Liquid, Optical interferometry

CO [methanol]
Conditions	thermal diffusivity
297.95 K, 5300000 kPa	2.19e-07 m2/s
298.15 K, 4220000 kPa	2.17e-07 m2/s
299.15 K, 0 kPa	9.7e-08 m2/s
299.15 K, 880000 kPa	1.59e-07 m2/s
299.15 K, 2430000 kPa	1.86e-07 m2/s
299.15 K, 3100000 kPa	1.92e-07 m2/s
299.15 K, 3120000 kPa	1.99e-07 m2/s
299.75 K, 5000000 kPa	2.37e-07 m2/s
299.85 K, 400000 kPa	1.32e-07 m2/s
300.15 K, 370000 kPa	1.35e-07 m2/s
300.75 K, 1750000 kPa	1.8e-07 m2/s
300.95 K, 860000 kPa	1.57e-07 m2/s
301.05 K, 1290000 kPa	1.7e-07 m2/s and 1.66e-07 m2/s

Conditions	thermal diffusivity [m2/s]
299.15 K	9.7e-08
